Data on ten molecules can be found in US7935819B2, “Cyclic urea derivatives, preparation thereof and pharmaceutical use thereof as kinase inhibitors” (Aventis Pharma S.A., priority 2006, dated 2011).

For orientation: IC50 means the concentration that gives 50% inhibition.

Assay [1] concerns the target MEF-IGF1R cells (stable clone transfected with hIGF-1R) (Homo sapiens, UniProt P08069). The experiment in a line: Proliferation/viability of MEF-IGF1R (Test C), [14C]thymidine incorporation. In kind it is cell-based. To be noted: rhIGF1 100 ng/mL, 72 hours, read-out: Test C IC50. Here is the method: C) Measurement of the Proliferation/Viability of MEF-IGF1R
Cell culture: the MEF-IGF1R cells (stable clone of cells transfected with the receptor hIGF-1R) are cultured at 37° C. under 5% CO2 in EMEM medium containing 10% FCS.
Test procedure: the cells are seeded at 5000 cells per well in 96-well Cytostar plates (Amersham) with 0.2 mL of EMEM culture medium at 37° C. for 18 hours. The cells are then washed twice with EMEM medium and left to culture without serum for 24 hours. The compounds are then added at various concentrations in the presence of rhIGF1 (100 ng/mL) and 0.1 μCi of Thymidine [^14C] (specific activity ˜50 mCi/mmol) to give 0.2 mL of volume per well. After incubation for 72 hours in the presence of the compound, at 37° C. under 5% CO2, the incorporation of Thymidine [^14C] is measured by counting the radioactivity on a Microbeta trilux counter (Perkin-Elmer). The IC50 is determined from 10 increasing concentrations of the compound.
(§1) (i) The tests are performed in duplicate and the mean of the two tests is calculated.
(§2) (ii) The value of the signal of the maximum response is calculated from the positive control: cells stimulated with IGF1 without compound.
(§3) (iii) Value of the signal of the minimum response is calculated from the negative control: cells not stimulated with IGF1 without compound.
(§4) (iv) By using these values as maximum (100%) and minimum (0%), respectively, the data were normalized so as to give a percentage of the maximum response.
(§5) (v) A curve of dose response is plotted and the IC50 (the concentration of which the compound induces a 50% decrease in the signal) of the compound is calculated by non-linear regression analysis.

For assay [2], the target named is T1, IGF-1R (human cytoplasmic domain fused with GST) (Homo sapiens, UniProt P08069).
T1 construct: The human cytoplasmic domain of IGF-1R was cloned by fusion with glutathione S-transferase (GST); made in house; host or cells: SF21 insect cells (baculovirus, pFastBac-GST)
T1 sequence (P08069 960-1367 limits assumed): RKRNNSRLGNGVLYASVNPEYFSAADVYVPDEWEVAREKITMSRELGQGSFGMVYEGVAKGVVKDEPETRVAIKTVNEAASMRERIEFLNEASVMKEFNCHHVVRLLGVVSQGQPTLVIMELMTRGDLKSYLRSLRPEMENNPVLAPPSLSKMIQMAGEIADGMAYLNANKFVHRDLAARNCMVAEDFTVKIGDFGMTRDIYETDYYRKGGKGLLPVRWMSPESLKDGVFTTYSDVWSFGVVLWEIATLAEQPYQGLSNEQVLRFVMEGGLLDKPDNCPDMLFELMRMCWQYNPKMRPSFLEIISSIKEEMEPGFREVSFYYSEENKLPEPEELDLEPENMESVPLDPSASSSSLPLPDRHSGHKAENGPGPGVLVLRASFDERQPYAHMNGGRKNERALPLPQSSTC
The experiment in a line: Kinase IGF-1R test (Test A): inhibition of autophosphorylation of the enzyme, HTRF. In kind it is biochemical. To be noted: 120 μM ATP. As for the experimental part:
A) Experimental Protocol for the Kinase IGF-1R Test:
The inhibitory activity of the compounds on IGF1R is determined by measuring the inhibition of autophosphorylation of the enzyme using a time-resolved fluorescence test (HTRF). The human cytoplasmic domain of IGF-1R was cloned by fusion with glutathione S-transferase (GST) in the baculovirus expression vector pFastBac-GST. The protein is expressed in the SF21 cells and purified to about 80% homogeneity. For the enzymatic test, the test compound at 10 mM dissolved in DMSO is diluted in 1/3 steps in a 50 mM Hepes, pH 7.5, 5 mM MnCl2, 50 mM NaCl, 3% Glycerol, 0.025% Tween 20 buffer. To measure the inhibition, the successive dilutions of the compound are preincubated for 30 minutes and 90 minutes in the presence of 5 nM of enzyme, the final DMSO concentration not exceeding 1%. The enzymatic reaction is initiated to have a final ATP concentration of 120 μM, and is stopped after 5 minutes by addition of 100 mM Hepes, pH 7.0 buffer containing 0.4 M of potassium fluoride, 133 mM EDTA, 0.1% BSA, the XL665-labelled antibody anti-GST and the anti-phosphotyrosine antibody conjugated to europium cryptate Eu—K (Cis-Bio Int.). The characteristics of the two fluorophores, XL-665 and Eu—K, are available in G. Mathis et al., Anticancer Research, 1997, 17, pages 3011-3014. The energy transfer between the excited europium cryptate to the acceptor XL665 is proportional to the degree of autophosphorylation of IGF-1R. The specific long-lasting signal of XL-665 is measured in a GENios Pro TECAN plate counter. The inhibition of autophosphorylation of IGF-1R at time 30 minutes and 90 minutes with the test compounds of the invention is calculated relative to a 1% in DMSO control, whose activity is measured in the absence of compound. The curve representing the percentage of inhibition as a function of the log of the concentration is established to determine the concentration corresponding to 50% inhibition (IC50).
Background: Time-resolved FRET reads energy transfer from a long-lived donor to a nearby acceptor.

Another assay concerns the target T2, IGF1R in MCF-7 cells (Homo sapiens, UniProt P08069).
T2 construct: endogenous in cells; host or cells: MCF-7 cells
The experiment in a line: Autophosphorylation of IGF-1R in MCF7 cells after stimulation with IGF-1 (Test B), ELISA. The class given is cell-based. To be noted: compound added one hour before IGF1 stimulation (10 minutes). Here is the method: B) Measurement of the Autophosphorylation of IGF-1r in MCF7 Cells after Stimulation with IGF-1
Cell Culturing and Execution of the Test:
The autophosphorylation of IGF1R in the IGF1-induced cells is evaluated by means of an ELISA technique (Enzyme Linked ImmunoSorbent Assay). The MCF-7 are seeded at 60 000 cells per well in 6-well plates and incubated at 37° C., 5% CO2 in medium containing 10% serum. After one night in 10% serum, the cells are deprived of serum for 24 hours. The compounds are added to the medium one hour before stimulation with IGF1. After 10 minutes of stimulation with IGF1, the cells are lysed with a buffer (Hepes 50 mM pH 7.6, Triton X100 1%, orthovanadate 2 mM, protease inhibitor cocktail). The cell lysates are incubated on a 96-well plate precoated with an anti-IGF1R antibody, followed by incubation with an anti-phosphotyrosine antibody coupled to the enzyme peroxidase. The level of peroxidase activity (measured by OD with a luminescent substrate) reflects the phosphorylation status of the receptor.
as §1, §2, §3, §4, §5
Background: ELISA stands for enzyme-linked immunosorbent assay.

The mark [3] stands for this setting: preincubation with enzyme 30 minutes, read-out: Test A 30′ IC50.
[4] abbreviates: preincubation with enzyme 90 minutes, read-out: Test A 90′ IC50.

Read-outs that look alike come from different tables or passages of the source. A value given as a limit tells only on which side of the number the result lay.

Sequence of MEF-IGF1R cells (stable clone transfected with hIGF-1R) (P08069 whole entry, change not shown): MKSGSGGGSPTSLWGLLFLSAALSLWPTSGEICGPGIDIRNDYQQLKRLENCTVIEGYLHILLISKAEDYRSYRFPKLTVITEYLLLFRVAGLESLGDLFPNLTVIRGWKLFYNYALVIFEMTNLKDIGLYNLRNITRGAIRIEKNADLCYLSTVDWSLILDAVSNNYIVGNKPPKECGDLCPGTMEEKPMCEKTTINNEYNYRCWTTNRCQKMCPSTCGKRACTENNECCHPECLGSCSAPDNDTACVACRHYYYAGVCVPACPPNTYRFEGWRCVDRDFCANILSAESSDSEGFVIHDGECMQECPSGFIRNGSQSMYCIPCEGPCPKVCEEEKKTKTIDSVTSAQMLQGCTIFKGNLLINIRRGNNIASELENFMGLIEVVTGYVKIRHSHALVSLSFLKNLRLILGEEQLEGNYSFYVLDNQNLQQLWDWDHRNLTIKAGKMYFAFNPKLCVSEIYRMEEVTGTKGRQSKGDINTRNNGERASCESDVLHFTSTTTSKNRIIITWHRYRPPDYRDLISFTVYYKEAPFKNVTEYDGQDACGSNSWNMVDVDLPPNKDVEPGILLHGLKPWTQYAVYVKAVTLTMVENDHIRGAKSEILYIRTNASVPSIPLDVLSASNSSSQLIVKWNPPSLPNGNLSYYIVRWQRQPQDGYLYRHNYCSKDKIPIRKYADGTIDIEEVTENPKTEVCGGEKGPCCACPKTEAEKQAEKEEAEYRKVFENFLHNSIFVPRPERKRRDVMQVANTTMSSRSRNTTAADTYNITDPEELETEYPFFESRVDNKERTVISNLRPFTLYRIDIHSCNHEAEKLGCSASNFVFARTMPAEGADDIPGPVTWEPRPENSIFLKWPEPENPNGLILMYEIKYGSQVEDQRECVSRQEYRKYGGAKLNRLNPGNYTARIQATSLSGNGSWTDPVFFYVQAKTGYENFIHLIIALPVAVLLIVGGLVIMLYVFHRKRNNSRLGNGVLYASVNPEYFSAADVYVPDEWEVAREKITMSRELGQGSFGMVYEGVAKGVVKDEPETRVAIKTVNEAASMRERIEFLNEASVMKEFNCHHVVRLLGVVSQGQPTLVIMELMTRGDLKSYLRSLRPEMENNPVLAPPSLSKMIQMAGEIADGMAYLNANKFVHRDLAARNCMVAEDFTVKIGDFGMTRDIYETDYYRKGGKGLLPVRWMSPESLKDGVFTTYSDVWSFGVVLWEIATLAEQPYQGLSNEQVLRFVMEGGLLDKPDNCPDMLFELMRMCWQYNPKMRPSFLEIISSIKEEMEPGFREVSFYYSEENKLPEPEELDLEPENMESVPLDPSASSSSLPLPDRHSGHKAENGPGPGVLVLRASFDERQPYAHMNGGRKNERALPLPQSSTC
T2 sequence (P08069 31-1367): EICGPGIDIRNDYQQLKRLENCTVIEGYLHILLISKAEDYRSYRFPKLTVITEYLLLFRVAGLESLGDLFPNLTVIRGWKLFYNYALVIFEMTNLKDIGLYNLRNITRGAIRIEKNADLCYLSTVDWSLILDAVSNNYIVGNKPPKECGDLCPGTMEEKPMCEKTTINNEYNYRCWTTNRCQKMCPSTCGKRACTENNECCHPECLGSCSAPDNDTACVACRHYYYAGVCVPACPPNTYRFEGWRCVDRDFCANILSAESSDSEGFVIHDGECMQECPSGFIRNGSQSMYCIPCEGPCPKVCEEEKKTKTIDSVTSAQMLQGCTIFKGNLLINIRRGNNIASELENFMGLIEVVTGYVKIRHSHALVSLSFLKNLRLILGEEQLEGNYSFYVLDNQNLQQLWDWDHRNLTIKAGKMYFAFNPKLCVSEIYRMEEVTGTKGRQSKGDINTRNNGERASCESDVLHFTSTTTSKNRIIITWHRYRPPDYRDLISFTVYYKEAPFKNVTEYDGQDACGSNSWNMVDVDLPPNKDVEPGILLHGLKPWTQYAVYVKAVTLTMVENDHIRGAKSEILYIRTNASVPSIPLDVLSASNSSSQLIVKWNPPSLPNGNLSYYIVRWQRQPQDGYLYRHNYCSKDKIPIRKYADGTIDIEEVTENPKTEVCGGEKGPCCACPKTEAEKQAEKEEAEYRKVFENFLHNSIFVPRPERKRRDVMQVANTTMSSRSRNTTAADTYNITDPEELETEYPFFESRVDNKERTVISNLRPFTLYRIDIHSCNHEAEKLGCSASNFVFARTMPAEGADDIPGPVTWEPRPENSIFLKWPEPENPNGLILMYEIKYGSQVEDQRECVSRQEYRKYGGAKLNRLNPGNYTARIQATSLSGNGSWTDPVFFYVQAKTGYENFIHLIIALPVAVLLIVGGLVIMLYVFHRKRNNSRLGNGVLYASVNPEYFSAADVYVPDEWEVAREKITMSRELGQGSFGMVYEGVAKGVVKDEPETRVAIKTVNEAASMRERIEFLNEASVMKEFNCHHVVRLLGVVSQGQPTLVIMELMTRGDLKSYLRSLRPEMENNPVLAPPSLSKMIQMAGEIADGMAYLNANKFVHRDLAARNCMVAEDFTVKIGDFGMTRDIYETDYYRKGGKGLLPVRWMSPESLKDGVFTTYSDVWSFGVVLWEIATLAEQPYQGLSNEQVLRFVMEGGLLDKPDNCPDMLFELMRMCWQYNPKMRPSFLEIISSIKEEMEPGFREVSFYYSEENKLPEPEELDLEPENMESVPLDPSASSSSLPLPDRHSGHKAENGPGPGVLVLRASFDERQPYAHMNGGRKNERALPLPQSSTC

Regarding `CC(C)(C)c1ccc(N2C(=O)N(Cc3ccnc(Nc4cccc(F)c4)c3)C(C)(C)C2=O)cc1` [Example 31I, 3-(4-tert-butylphenyl)-1-({2-[(3-fluorophenyl)-amino]pyridin-4-yl}methyl)-5,5-dimethylimidazolidine-2,4-dione], the GI50 in assay [1] was less than 0.01 µM. Moreover, the IC50 was greater than 0.1 µM in assay [2] (setting [3]), 0.01 to 0.1 µM in assay [2] (setting [4]) and 0.01 to 0.1 µM against IGF1R in MCF-7 cells.

Take `CC(C)(C)c1ccc(N2C(=O)N(Cc3ccnc(NC4CC4)c3)C(C)(C)C2=O)cc1` [Example 31J, 3-(4-tert-butylphenyl)-1-{[2-(cyclopropylamino)pyridin-4-yl]methyl}-5,5-dimethylimidazolidine-2,4-dione]: in assay [1], the GI50 is 0.01 to 0.1 µM. Also, the IC50 in assay [2] (setting [3]) was 0.01 to 0.1 µM; in assay [2] (setting [4]) it was less than 0.01 µM; against IGF1R in MCF-7 cells, 0.01 to 0.1 µM.

With `CC(C)(C)c1ccc(N2C(=O)N(Cc3ccnc(Nc4cccnc4Cl)c3)C(C)(C)C2=O)cc1` [Example 31K, 3-(4-tert-butylphenyl)-1-({2-[(2-chloropyridin-3-yl)amino]pyridin-4-yl}methyl)-5,5-dimethylimidazolidine-2,4-dione], the GI50 in assay [1] was 0.01 to 0.1 µM. Also, the IC50 in assay [2] (setting [3]) was 0.01 to 0.1 µM; in assay [2] (setting [4]) it was 0.01 to 0.1 µM; against IGF1R in MCF-7 cells it was less than 0.01 µM.

For `CC(C)(C)c1ccc(N2C(=O)N(Cc3ccnc(Nc4ccc(Cl)nc4)c3)C(C)(C)C2=O)cc1` [Example 31L, 3-(4-tert-butylphenyl)-1-({2-[(6-chloropyridin-3-yl)amino]pyridin-4-yl}methyl)-5,5-dimethylimidazolidine-2,4-dione], the GI50 in assay [1] is 0.01 to 0.1 µM. Besides, the IC50 in assay [2] (setting [3]) was greater than 0.1 µM; in assay [2] (setting [4]), 0.01 to 0.1 µM; against IGF1R in MCF-7 cells it was 0.01 to 0.1 µM.

In the case of `CC(C)(C)c1ccc(N2C(=O)N(Cc3ccnc(Nc4ccc(O)nc4)c3)C(C)(C)C2=O)cc1` [Example 31M, 3-(4-tert-butylphenyl)-1-({2-[(6-hydroxypyridin-3-yl)amino]pyridin-4-yl}methyl)-5,5-dimethylimidazolidine-2,4-dione], in assay [1], the GI50 lay within 0.01 to 0.1 µM. Moreover, the IC50 (in assay [2] (setting [3]); in assay [2] (setting [4]); on IGF1R in MCF-7 cells) was 0.01 to 0.1 µM throughout.

Regarding `CC(C)(CO)c1ccc(N2C(=O)N(Cc3ccnc(Nc4cccnc4)c3)C(C)(C)C2=O)cc1` [Example 31N, 3-[4-(2-hydroxy-1,1-dimethylethyl)phenyl]-5,5-dimethyl-1-{[2-(pyridin-3-ylamino)pyridin-4-yl]methyl}-imidazolidine-2,4-dione], the GI50 in assay [1] was greater than 0.1 µM. Besides, the figures for the IC50 (in assay [2] (setting [3]); in assay [2] (setting [4]); at IGF1R in MCF-7 cells) were greater than 0.1 µM, 0.01 to 0.1 µM and 0.01 to 0.1 µM, respectively.

On to `CC(C)(C)c1ccc(N2C(=O)N(Cc3ccnc(NC(=O)Nc4cccnc4)c3)C(C)(C)C2=O)cc1` [Example 31O, 1-(4-{[3-(4-tert-butylphenyl)-5,5-dimethyl-2,4-dioxoimidazolidin-1-yl]methyl}pyridin-2-yl)-3-pyridin-3-ylurea], for which the GI50 in assay [1] is 0.01 to 0.1 µM. In addition, the IC50 is greater than 0.1 µM in assay [2] (setting [3]), greater than 0.1 µM in assay [2] (setting [4]) and 0.01 to 0.1 µM against IGF1R in MCF-7 cells.

`CC(C)(C)c1ccc(N2C(=O)N(Cc3ccnc(NC(N)=O)c3)C(C)(C)C2=O)cc1` [Example 31P, 1-(4-{[3-(4-tert-butylphenyl)-5,5-dimethyl-2,4-dioxoimidazolidin-1-yl]methyl}pyridin-2-yl)urea]: in assay [1], the GI50 was less than 0.01 µM. Also, the IC50 is 0.01 to 0.1 µM in assay [2] (setting [3]), less than 0.01 µM in assay [2] (setting [4]) and 0.01 to 0.1 µM against IGF1R in MCF-7 cells.

Take `COC(=O)Nc1cc(CN2C(=O)N(c3ccc(C(C)(C)C)cc3)C(=O)C2(C)C)ccn1` [Example 31Q, methyl (4-{[3-(4-tert-butylphenyl)-5,5-dimethyl-2,4-dioxoimidazolidin-1-yl]methyl}pyridin-2-yl)carbamate]: the GI50 in assay [1] fell in the range of 0.01 to 0.1 µM. For the same molecule, the results for the IC50 (in assay [2] (setting [3]); in assay [2] (setting [4]); at IGF1R in MCF-7 cells) were 0.01 to 0.1 µM, less than 0.01 µM and less than 0.01 µM, respectively.

Take `CC(C)(C)c1ccc(N2C(=O)N(Cc3ccnc(Nc4ccc(CCN5CCCC5)cc4)c3)C(C)(C)C2=O)cc1` [Example 31U, 3-(4-tert-butylphenyl)-5,5-dimethyl-1-[(2-{[4-(2-pyrrolidin-1-ylethyl)phenyl]amino}pyridin-4-yl)methyl]imidazolidine-2,4-dione]: the GI50 in assay [1] was less than 0.01 µM. Moreover, the figures for the IC50 (in assay [2] (setting [3]); in assay [2] (setting [4]); on IGF1R in MCF-7 cells) were 0.01 to 0.1 µM, less than 0.01 µM and less than 0.01 µM, respectively.
